Reference: PubChem BioAssay (NCI)
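A five-concentration, 48-hour dose response in 96-well plates underlies each endpoint, interpolated linearly between surrounding concentrations. TGI: total growth inhibition.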

What was measured:
Assay in all cases: NCI anticancer screen, dose series, 48 h
786-0 renal = system: 786-0 renal
A498 renal = system: A498 renal
A549 NSCLC = system: A549 NSCLC
ACHN renal = system: ACHN renal
CAKI-1 renal = system: CAKI-1 renal
CCRF-CEM leukemia = system: CCRF-CEM leukemia
COLO 205 colon = system: COLO 205 colon
DLD-1 colon = system: DLD-1 colon
DMS 273 small cell lung = system: DMS 273 small cell lung
EKVX NSCLC = system: EKVX NSCLC
HCT-15 colon = system: HCT-15 colon
HL-60(TB) leukemia = system: HL-60(TB) leukemia
HOP-18 NSCLC = system: HOP-18 NSCLC
HOP-92 NSCLC = system: HOP-92 NSCLC
HT29 colon = system: HT29 colon
IGROV1 ovarian = system: IGROV1 ovarian
K-562 leukemia = system: K-562 leukemia
KM12 colon = system: KM12 colon
KM20L2 colon = system: KM20L2 colon
LOX IMVI melanoma = system: LOX IMVI melanoma
LXFL 529 NSCLC = system: LXFL 529 NSCLC
M14 melanoma = system: M14 melanoma
M19-MEL melanoma = system: M19-MEL melanoma
MALME-3M melanoma = system: MALME-3M melanoma
MOLT-4 leukemia = system: MOLT-4 leukemia
NCI-H23 lung = system: NCI-H23 lung
NCI-H460 lung = system: NCI-H460 lung
NCI-H522 lung = system: NCI-H522 lung
OVCAR-3 ovarian = system: OVCAR-3 ovarian
OVCAR-4 ovarian = system: OVCAR-4 ovarian
OVCAR-5 ovarian = system: OVCAR-5 ovarian
OVCAR-8 ovarian = system: OVCAR-8 ovarian
RPMI-8226 leukemia = system: RPMI-8226 leukemia
RXF 393 renal = system: RXF 393 renal
SF-268 CNS = system: SF-268 CNS
SF-295 CNS = system: SF-295 CNS
SF-539 CNS = system: SF-539 CNS
SK-MEL-2 melanoma = system: SK-MEL-2 melanoma
SK-MEL-28 melanoma = system: SK-MEL-28 melanoma
SK-MEL-5 melanoma = system: SK-MEL-5 melanoma
SK-OV-3 ovarian = system: SK-OV-3 ovarian
SN12C renal = system: SN12C renal
SNB-19 CNS = system: SNB-19 CNS
SNB-75 CNS = system: SNB-75 CNS
SW-620 colon = system: SW-620 colon
TK-10 renal = system: TK-10 renal
U251 CNS = system: U251 CNS
UACC-257 melanoma = system: UACC-257 melanoma
UACC-62 melanoma = system: UACC-62 melanoma
UO-31 renal = system: UO-31 renal
XF 498 CNS = system: XF 498 CNS
HCC-2998 colon = system: HCC-2998 colon
HCT-116 colon = system: HCT-116 colon
HOP-62 NSCLC = system: HOP-62 NSCLC
NCI-H226 lung = system: NCI-H226 lung
SNB-78 CNS = system: SNB-78 CNS
SR leukemia = system: SR leukemia
DMS 114 small cell lung = system: DMS 114 small cell lung

COc1ccc(S(=O)(=O)NC(C)C(=O)O)cc1 (stereo not given)
TGI (786-0 renal): > 100 µM
TGI (A498 renal): > 100 µM
TGI (A549 NSCLC): > 100 µM
TGI (ACHN renal): > 100 µM
TGI (CAKI-1 renal): > 100 µM
TGI (CCRF-CEM leukemia): > 100 µM
TGI (COLO 205 colon): > 100 µM
TGI (DLD-1 colon): > 100 µM
TGI (DMS 273 small cell lung): > 100 µM
TGI (EKVX NSCLC): > 100 µM
TGI (HCT-15 colon): > 100 µM
TGI (HL-60(TB) leukemia): > 100 µM
TGI (HOP-18 NSCLC): > 100 µM
TGI (HOP-92 NSCLC): > 100 µM
TGI (HT29 colon): > 100 µM
TGI (IGROV1 ovarian): > 100 µM
TGI (K-562 leukemia): > 100 µM
TGI (KM12 colon): > 100 µM
TGI (KM20L2 colon): > 100 µM
TGI (LOX IMVI melanoma): > 100 µM
TGI (LXFL 529 NSCLC): > 100 µM
TGI (M14 melanoma): > 100 µM
TGI (M19-MEL melanoma): > 100 µM
TGI (MALME-3M melanoma): > 100 µM
TGI (MOLT-4 leukemia): > 100 µM
TGI (NCI-H23 lung): > 100 µM
TGI (NCI-H460 lung): > 100 µM
TGI (NCI-H522 lung): > 100 µM
TGI (OVCAR-3 ovarian): > 100 µM
TGI (OVCAR-4 ovarian): > 100 µM
TGI (OVCAR-5 ovarian): > 100 µM
TGI (OVCAR-8 ovarian): > 100 µM
TGI (RPMI-8226 leukemia): > 100 µM
TGI (RXF 393 renal): > 100 µM
TGI (SF-268 CNS): > 100 µM
TGI (SF-295 CNS): > 100 µM
TGI (SF-539 CNS): > 100 µM
TGI (SK-MEL-2 melanoma): > 100 µM
TGI (SK-MEL-28 melanoma): > 100 µM
TGI (SK-MEL-5 melanoma): > 100 µM
TGI (SK-OV-3 ovarian): > 100 µM
TGI (SN12C renal): > 100 µM
TGI (SNB-19 CNS): > 100 µM
TGI (SNB-75 CNS): > 100 µM
TGI (SW-620 colon): > 100 µM
TGI (TK-10 renal): > 100 µM
TGI (U251 CNS): > 100 µM
TGI (UACC-257 melanoma): > 100 µM
TGI (UACC-62 melanoma): > 100 µM
TGI (UO-31 renal): > 100 µM
TGI (XF 498 CNS): 63.4 µM

COc1ccc(Cn2c(C)nc3c2C(=O)c2ccccc2C3=O)cc1
TGI (786-0 renal): 40 µM
TGI (A549 NSCLC): 36.1 µM
TGI (ACHN renal): 48.9 µM
TGI (CCRF-CEM leukemia): 37.3 µM
TGI (COLO 205 colon): 22.6 µM
TGI (DLD-1 colon): > 75 µM
TGI (DMS 273 small cell lung): 19.7 µM
TGI (EKVX NSCLC): 49.2 µM
TGI (HCC-2998 colon): > 75 µM
TGI (HCT-116 colon): 13 µM
TGI (HCT-15 colon): > 75 µM
TGI (HL-60(TB) leukemia): 22.2 µM
TGI (HOP-62 NSCLC): 51.7 µM
TGI (HT29 colon): > 75 µM
TGI (IGROV1 ovarian): 38.6 µM
TGI (K-562 leukemia): 30.1 µM
TGI (KM12 colon): 26.7 µM
TGI (KM20L2 colon): > 75 µM
TGI (LOX IMVI melanoma): 11.2 µM
TGI (LXFL 529 NSCLC): 28.7 µM
TGI (M14 melanoma): 23.5 µM
TGI (M19-MEL melanoma): 16.7 µM
TGI (MALME-3M melanoma): 19 µM
TGI (MOLT-4 leukemia): 30 µM
TGI (NCI-H226 lung): 48.2 µM
TGI (NCI-H23 lung): 16.5 µM
TGI (NCI-H460 lung): 9.74 µM
TGI (NCI-H522 lung): 15.5 µM
TGI (OVCAR-3 ovarian): 24 µM
TGI (OVCAR-4 ovarian): 64.1 µM
TGI (OVCAR-8 ovarian): > 75 µM
TGI (RXF 393 renal): 63.4 µM
TGI (SF-268 CNS): 68.1 µM
TGI (SF-295 CNS): 58.2 µM
TGI (SF-539 CNS): 38.2 µM
TGI (SK-MEL-2 melanoma): 29.8 µM
TGI (SK-MEL-28 melanoma): > 75 µM
TGI (SK-MEL-5 melanoma): 16.6 µM
TGI (SK-OV-3 ovarian): > 75 µM
TGI (SN12C renal): > 75 µM
TGI (SNB-19 CNS): > 75 µM
TGI (SNB-75 CNS): 71.9 µM
TGI (SNB-78 CNS): > 75 µM
TGI (SR leukemia): 10.4 µM
TGI (SW-620 colon): > 75 µM
TGI (TK-10 renal): > 75 µM
TGI (U251 CNS): > 75 µM
TGI (UACC-257 melanoma): 24.7 µM
TGI (UACC-62 melanoma): 14 µM
TGI (UO-31 renal): 57.4 µM
TGI (XF 498 CNS): 27.1 µM

Cc1c2cc(Cl)ccc2n2c(=O)c3ccccc3[nH]c(=O)c12
TGI (786-0 renal): > 100 µM
TGI (CAKI-1 renal): > 100 µM
TGI (CCRF-CEM leukemia): > 100 µM
TGI (COLO 205 colon): > 100 µM
TGI (DLD-1 colon): > 100 µM
TGI (DMS 114 small cell lung): > 100 µM
TGI (DMS 273 small cell lung): > 100 µM
TGI (HCC-2998 colon): > 100 µM
TGI (HCT-116 colon): > 100 µM
TGI (HOP-62 NSCLC): > 100 µM
TGI (HOP-92 NSCLC): > 100 µM
TGI (IGROV1 ovarian): > 100 µM
TGI (K-562 leukemia): > 100 µM
TGI (LXFL 529 NSCLC): > 100 µM
TGI (M14 melanoma): > 100 µM
TGI (M19-MEL melanoma): > 100 µM
TGI (MALME-3M melanoma): > 100 µM
TGI (MOLT-4 leukemia): > 100 µM
TGI (NCI-H226 lung): > 100 µM
TGI (NCI-H23 lung): > 100 µM
TGI (NCI-H522 lung): > 100 µM
TGI (OVCAR-4 ovarian): > 100 µM
TGI (RPMI-8226 leukemia): > 100 µM
TGI (SF-268 CNS): > 100 µM
TGI (SF-539 CNS): > 100 µM
TGI (SK-MEL-2 melanoma): > 100 µM
TGI (SK-MEL-28 melanoma): > 100 µM
TGI (SK-OV-3 ovarian): > 100 µM
TGI (SNB-75 CNS): > 100 µM
TGI (SNB-78 CNS): > 100 µM
TGI (SR leukemia): > 100 µM
TGI (UACC-62 melanoma): > 100 µM
TGI (UO-31 renal): > 100 µM
